The values that follow come from patent US6528618B1, “Anti-inflammatory peptides derived from C-reactive protein” (Yeda Research and Development Co. Ltd., priority 1997, dated 2003).

“Also recorded” adds a separate entry of the source. Where a SMILES comes first, the peptide text is derived from it.

In general, Ki refers to the dissociation constant of the complex between target and ligand, obtained from inhibition or displacement.

In assay [1] the target is T1, human leukocyte elastase (hLE) (Homo sapiens, UniProt P08246).
T1 construct: Neutrophils (1.4 billion) were isolated from whole blood obtained from a single healthy laboratory donor; from tissue; host or cells: neutrophils from whole blood of a single healthy donor
T1 sequence (P08246 30-247 limits assumed): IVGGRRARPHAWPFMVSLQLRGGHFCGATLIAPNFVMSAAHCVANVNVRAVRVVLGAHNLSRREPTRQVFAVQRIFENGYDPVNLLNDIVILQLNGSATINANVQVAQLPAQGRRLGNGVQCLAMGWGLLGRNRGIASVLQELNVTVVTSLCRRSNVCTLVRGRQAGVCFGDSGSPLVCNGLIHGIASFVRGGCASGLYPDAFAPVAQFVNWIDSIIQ
Description: In vitro inhibition of hLE (cleavage of MeOSuc-AAPV-NA). The following applies: for Ki: hLE Ki [μM], Table 2, substrate MeOSuc-AAPV-NA 200 μM, pH 7.4, 37 C. Format: biochemical. As for the experimental part: (§1) The enzymatic activity was assayed with MeOSuc-AAPV-NA for hLE determination and Suc-AAPF-NA for hCG determination (both in 100 mM Hepes buffer, pH 7.4, containing 0.05% of the […] detergent Brij-35). The activities of the individual enzymatic fractions were 100% free from cross-contamination. […] The fractions containing hLE and hCG were dialyzed each against 0.1% pyridinium acetate, pH 5.3, divided into 20 aliquots, lyophilized, and stored at −20 ° C. until use.
(v) Inhibition experiments with hLE: Peptides were dissolved in 100 mM Hepes buffer pH 7.4 containing 0.1% Brij-35 with 10%. DMSO to yield 300 μM solutions, which were used to make further dilutions with the same buffer, and 80 μL aliquots were added in duplicates to 96-well plates. The substrate, 600 μM MeOSuc-AAPV-NA in the same buffer with 5% DMSO, was added to each well in addition to the blank wells, and the plate was placed in the plate reader equilibrated to 37 C (Dynateck MR-6000). Lyophilized aliquots of hLE were dissolved in 1600 μL of 100 mM Hepes buffer without DMSO, and 80 μL of the enzyme solution was added to the peptides and substrate to initiate the reaction. […] The final volume was 240 μL containing: 5% DMSO, 1-100 μM of peptide, 200 μM substrate, and 0.75 μg (˜25 picomol) enzyme.
(viii) Calculations: For hLE, V is determined by fitting a linear equation to the first 6 time-points (10 min) of the kinetics data using the least squares method. […] Several inhibitor concentration in duplicates and two control wells were used to fit a linear equation to graphs of Vo/Vi−1 vs. [I] for each inhibitor using the least squares method (8 data points for each inhibitor). From calculating the error in the slope of the equation, the relative error for Ki was deduced:
Ki={slope*(1+[S]/Km)}^−1because Ki=[I]*{(1+[S]/Km)*(Vo/Vi−1)}^−1.
(§2) The hLE inhibitory capability of CRP-derived peptides was evaluated by inhibiting the enzymatic cleavage of MeOSuc-AAPV-NA as described in Materials and Methods (section v).

Assay [2] has as its target T2, human leukocyte cathepsin G (hCG) (Homo sapiens, UniProt P08311).
T2 construct: Neutrophils (1.4 billion) were isolated from whole blood obtained from a single healthy laboratory donor; from tissue; host or cells: neutrophils from whole blood of a single healthy donor
T2 sequence (P08311 21-243 limits assumed): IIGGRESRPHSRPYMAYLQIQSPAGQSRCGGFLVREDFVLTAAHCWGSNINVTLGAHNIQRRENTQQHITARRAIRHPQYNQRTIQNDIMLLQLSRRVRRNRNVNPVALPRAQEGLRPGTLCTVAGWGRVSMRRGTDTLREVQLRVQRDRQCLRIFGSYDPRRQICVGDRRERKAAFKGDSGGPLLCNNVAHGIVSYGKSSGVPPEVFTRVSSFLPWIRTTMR
The assay can be described thus: In vitro inhibition of hCG (cleavage of Suc-AAPF-NA). Format: biochemical. The following applies: for Ki: hCG Ki [μM], Table 2, substrate Suc-AAPF-NA 600 μM, pH 7.4. How it is done:
as §1
vi) Inhibition experiments with hCG: Similar conditions to hLE inhibition experiments were used except the substrate: 80 μL of 1.80 mM Suc-AAPF-NA. The enzyme was dissolved in 800 μL buffer, and the reaction was monitored every 6 min for 1 hour. The final volume was 240 μL containing: 5% DMSO, 1-100 μM peptide, 600 μM substrate, and 1.2 μg enzyme (about 40 picomol).
For hCG, V is determined by fitting a quadratic equation to the total kinetic data (60 min), using the least squares method and calculating V at t=0.
The hCG inhibitory capability of CRP-derived peptides was evaluated by inhibiting the enzymatic cleavage of Suc-AAPF-NA as described in Materials and Methods (section vi).

In assay [3] the target is T3, human leukocyte elastase (human, UniProt P08246 30-267).
T3 construct: mature; Active enzyme purified from human neutrophils; also called hLE
T3 sequence (looked up): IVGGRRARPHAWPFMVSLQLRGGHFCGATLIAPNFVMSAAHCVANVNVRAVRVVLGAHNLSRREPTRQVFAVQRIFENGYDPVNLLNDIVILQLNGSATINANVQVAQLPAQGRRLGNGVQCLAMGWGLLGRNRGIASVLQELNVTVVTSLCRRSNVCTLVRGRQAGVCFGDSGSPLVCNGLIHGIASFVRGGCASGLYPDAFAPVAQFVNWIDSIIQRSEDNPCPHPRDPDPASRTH
The assay can be described thus: hLE enzyme inhibition kinetics, cleavage of MeOSuc-AAPV-NA. How it is done:
(§3) (v) Inhibition experiments with hLE: Peptides were dissolved in 100 mM Hepes buffer pH 7.4 containing 0.1% Brij-35 with 10%. DMSO to yield 300 µM solutions, which were used to make further dilutions with the same buffer, and 80 µL aliquots were added in duplicates to 96-well plates. The substrate, 600 µM MeOSuc-AAPV-NA in the same buffer with 5% DMSO, was added to each well in addition to the blank wells, and the plate was placed in the plate reader equilibrated to 37 C (Dynateck MR-6000). Lyophilized aliquots of hLE were dissolved in 1600 µL of 100 mM Hepes buffer without DMSO, and 80 µL of the enzyme solution was added to the peptides and substrate to initiate the reaction. The kinetics program read the plate at 405 nm every 2 min for 20 min (with a 3 sec shaking period between readings), and plotted the results as well as the average of each duplicate. The final volume was 240 µL containing: 5% DMSO, 1–100 µM of peptide, 200 µM substrate, and 0.75 µg (~25 picomol) enzyme.
as §2

Assay [4] addresses T3, human leukocyte elastase. The assay is described as above. As for the experimental part: as §3, §2
The source holds these as a separate data set.

For the molecule `CC[C@H](C)[C@H](NC(=O)[C@H](CC(=O)O)NC(=O)[C@H](CCCCN)NC(=O)[C@H](CO)NC(=O)[C@H](Cc1c[nH]c2ccccc12)NC(=O)[C@H](Cc1ccccc1)NC(=O)[C@@H](NC(=O)[C@H](CC(C)C)NC(=O)[C@@H](NC(=O)[C@H](CCC(=O)O)NC(=O)[C@H](CC(N)=O)NC(=O)[C@H](CC(=O)O)NC(=O)[C@H](CCC(N)=O)NC(=O)[C@H](CCCNC(=N)N)NC(=O)[C@H](CCCCN)NC(=O)[C@@H](NC(=O)[C@H](C)N)[C@@H](C)O)[C@@H](C)CC)[C@@H](C)CC)C(=O)NCC(=O)N[C@@H](Cc1ccc(O)cc1)C(=O)N[C@@H](CO)C(=O)N[C@@H](Cc1ccccc1)C(=O)N[C@H](C(=O)N[C@H](C(=O)NCC(=O)NCC(=O)N[C@@H](CO)C(=O)N[C@@H](CCC(=O)O)C(=O)N[C@H](C(=O)N[C@@H](CC(C)C)C(=O)O)[C@@H](C)CC)C(C)C)[C@@H](C)O` [Peptide 17] (H-ATKRQDNEILIFWSKDIGYSFTVGGSEIL-OH; N-terminus and C-terminus assumed), the “hLE inhibitory activity (in words)” value in assay [1] is given as “reduced inhibitory activity; also recorded: reduction of inhibitory activity”. Moreover, in assay [2], the “hCG inhibitory activity (in words)” value was “reduction of inhibitory activity” and the Ki was determined as 5.5 ± 1 µM.

For `CC[C@H](C)[C@H](NC(=O)[C@H](CC(=O)O)NC(=O)[C@H](CCCN)NC(=O)[C@H](CO)NC(=O)[C@H](Cc1c[nH]c2ccccc12)NC(=O)[C@H](Cc1ccccc1)NC(=O)[C@@H](NC(=O)[C@H](CC(C)C)NC(=O)[C@@H](NC(=O)[C@@H](N)CCC(=O)O)[C@@H](C)CC)[C@@H](C)CC)C(=O)NCC(=O)N[C@@H](Cc1ccc(O)cc1)C(=O)N[C@@H](CO)C(=O)N[C@@H](Cc1ccccc1)C(=O)N[C@H](C(=O)O)[C@@H](C)O` [Peptide 20, Glu-Ile-Leu-Ile-Phe-Trp-Ser-Orn-Asp-Ile-Gly-Tyr-Ser-Phe-Thr] (HELM PEPTIDE1{E.I.L.I.F.W.S.[Orn].D.I.G.Y.S.F.T}$$$$V2.0; N-terminus and C-terminus assumed), the “hLE inhibitory activity (in words)” value in assay [1] is recorded as “retained the same level of inhibitory activity as peptide 6”. The Ki amounted to 0.25 ± 0.1 µM in assay [1] and 0.25 ± 0.05 µM in assay [2].

For `CC[C@H](C)[C@H](NC(=O)[C@H](CC(=O)O)NC(=O)[C@H](CCN)NC(=O)[C@H](CO)NC(=O)[C@H](Cc1c[nH]c2ccccc12)NC(=O)[C@H](Cc1ccccc1)NC(=O)[C@@H](NC(=O)[C@H](CC(C)C)NC(=O)[C@@H](NC(=O)[C@@H](N)CCC(=O)O)[C@@H](C)CC)[C@@H](C)CC)C(=O)NCC(=O)N[C@@H](Cc1ccc(O)cc1)C(=O)N[C@@H](CO)C(=O)N[C@@H](Cc1ccccc1)C(=O)N[C@H](C(=O)O)[C@@H](C)O` [Peptide 21, Glu-Ile-Leu-Ile-Phe-Trp-Ser-DAB-Asp-Ile-Gly-Tyr-Ser-Phe-Thr] (HELM PEPTIDE1{E.I.L.I.F.W.S.[Dab].D.I.G.Y.S.F.T}$$$$V2.0; N-terminus and C-terminus assumed), in assay [1], the “hLE inhibitory activity (in words)” value was “retained the same level of inhibitory activity as peptide 6” and the affinity, expressed as Ki, was 0.2 ± 0.05 µM. Moreover, the affinity in assay [2] corresponds to a Ki of 0.85 ± 0.35 µM.

As to `CC[C@H](C)[C@H](NC(=O)[C@H](C)NC(=O)[C@H](CCCCN)NC(=O)[C@H](CO)NC(=O)[C@H](Cc1c[nH]c2ccccc12)NC(=O)[C@H](Cc1ccccc1)NC(=O)[C@@H](NC(=O)[C@H](CC(C)C)NC(=O)[C@@H](NC(=O)[C@@H](N)CCC(=O)O)[C@@H](C)CC)[C@@H](C)CC)C(=O)NCC(=O)N[C@@H](Cc1ccc(O)cc1)C(=O)N[C@@H](CO)C(=O)N[C@@H](Cc1ccccc1)C(=O)N[C@H](C(=O)O)[C@@H](C)O` [Peptide 22, Glu-Ile-Leu-Ile-Phe-Trp-Ser-Lys-Ala-Ile-Gly-Tyr-Ser-Phe-Thr] (H-EILIFWSKAIGYSFT-OH; N-terminus and C-terminus assumed), the “hLE inhibitory activity (in words)” value in assay [1] is given as “large decrease in inhibition capacity”. For the same molecule, the Ki amounted to 3 ± 0.6 µM in assay [1] and 5.5 ± 1.5 µM in assay [2].

For `CC[C@H](C)[C@H](NC(=O)[C@H](CCC(=O)O)NC(=O)[C@H](CCCCN)NC(=O)[C@H](CO)NC(=O)[C@H](Cc1c[nH]c2ccccc12)NC(=O)[C@H](Cc1ccccc1)NC(=O)[C@@H](NC(=O)[C@H](CC(C)C)NC(=O)[C@@H](NC(=O)[C@@H](N)CCC(=O)O)[C@@H](C)CC)[C@@H](C)CC)C(=O)NCC(=O)N[C@@H](Cc1ccc(O)cc1)C(=O)N[C@@H](CO)C(=O)N[C@@H](Cc1ccccc1)C(=O)N[C@H](C(=O)O)[C@@H](C)O` [Peptide 23, Glu-Ile-Leu-Ile-Phe-Trp-Ser-Lys-Glu-Ile-Gly-Tyr-Ser-Phe-Thr] (H-EILIFWSKEIGYSFT-OH; N-terminus and C-terminus assumed), in assay [1], the “hLE inhibitory activity (in words)” value was “small decrease in inhibitory activity”. For the same molecule, in assay [2], the inhibition constant Ki was found to be 0.85 ± 0.25 µM.

Molecule TFSYGIDKSWFILIE [peptide 24 (reverse sequence of peptide 6)] yielded an inhibitory constant (Ki) with human leukocyte elastase [3] of 10000 nM. For the same molecule, the “fold less active against peptide 6” value in the assay with human leukocyte elastase [4] amounted to 30 fold.

In turn, ATKRQDNEILIFWSKDIGYSFTVGGSEIL (Synthetic 29-mer) [peptide 17 (CRP55-83)] returned a Ki with human leukocyte elastase [3] of 7300 nM.

B1: peptide 26 (peptide)
peptide: EILIFWSVDI
notes: 10-mer analog of peptide 14 (CRP62-71) with Lys69 replaced by Val; also called pep26
In the assay with human leukocyte elastase [3], B1 showed a Ki of 2000 nM.

B2: peptide 23 (peptide)
peptide: EILIFWSKEIGYSFT
notes: Analog of peptide 6 (CRP62-76) with Asp70 replaced by Glu; also called pep23
B2 registered a Ki with human leukocyte elastase [3] of 550 nM.
